According to patent US20240287430A1, “Systems and Methods for Cellular Lumen Formation and Cellular Differentiation” (The Regents of the University of California, priority 2021, published 2024):

Tests used:
[1] = test system: hPSC-derived neural tube (neural folding morphogenesis); assay: Modeling neural tube defects in the stem-cell derived neural tube morphogenesis system; type: cell-based, human; details: for neural apical curvature / neural tissue morphology (thickness, hinges): treated samples vs control samples, ROCK inhibitor 10 μM day 5-8
Method: Because animal models are limited in their capacity to explain how human genetics affects neural tube closure, it was tested whether the reproducible human stem-cell system could be used to model neural tube defects (NTDs). This example focuses on various compounds that induce NTDs: ROCK inhibitor, novobiocin, and valproic acid (FIG. 24). […] In turn, ROCK upregulates apical actomyosin contractility in neural cells which leads to apical constriction of the neural plate. Neural plate contraction then drives neural folding. It was thus set out to determine whether apical contractility plays a role during in vitro neural folding. […] The formation of an actomyosin gradient is followed by apical neural contraction which leads to folding.
To perturb ROCK/Shroom3 signaling and apical neural contractility a highly specific molecular inhibitor of ROCK (Y-27632) was applied. […] The effects of novobiocin and valproic acid were also examined. […] It was further concluded that the in vitro lumen model system is suitable for studying how abnormalities in signaling pathways lead to neural tube defects in a human genetic context.
Day 1. Seeding onto micropatterns. hPSCs are released from well-plate surfaces using non-enzymatic agitation following manufacturer's instructions (ReleSR, STEMCELL Technologies, Cambridge, MA). Cells are resuspended as a single-cell suspension at densities of 750K-1M cells/mL in mTeSR1 containing 10 μM ROCK inhibitor Y27632 (Abcam, Cambridge, UK). 200 μL of cell suspension is then pipetted onto prepatterned dishes and allowed to settle for 15 minutes before adding 1 mL of mTeSR1 and allowing cells to settle for 10 additional minutes. Excess media is aspirated, leaving enough liquid to cover patterns and replaced with fresh 2 mL of mTeSR until the following day.
Day 2. Matrigel addition. mTESR1 media is exchanged with a neural induction media containing Matrigel (4%, v/v). Neural induction media is supplemented with 5 μM of TGFβ-inhibitor SB-431542.
Day 3-4. Lumen Formation. Dishes are left unperturbed at day 3 to allow transition into 3D stem-cell tissue containing a single lumen.
Day 5-9. Exposure to Morphogens. Neural induction media is supplemented with 5 ng/ml BMP4 in addition to 5 μM of SB-431542. Media is exchanged daily. Cell fates are observed on day 6 and folding is observed during days 7-9.
All samples were fixed, immunostained and imaged as whole mounts in the culture dish. Samples are fixed in 4% PFA, 1 hr at room temperature (RT), washed three times for 15 min in PBS, and permeabilized in 1.5% Triton-PBS over-night (o/n) at 4 C. The following day, samples are washed in 0.3% Triton, and blocked for 2 hrs RT (10% NGS, 1% BSA, 0.3% Triton-X in PBS). Primary antibodies are used at 1:100-1:200 in blocking solution o/n at 4° C. Next, samples are washed in 0.1% Tween in PBS, and incubated with secondary antibodies 1:500-1:1000 in PBT o/n at 4° C. DAPI and phalloidin are also added at this stage. Finally, samples are washed in PBS for 1 hr, and imaged.
ROCK inhibition is achieved using the small molecule Y-27632 reconstituted in water at a stock concentration of 10 mM. ROCK inhibitor was applied at a concentration of 10 μM (1:1000 dilution) at day 5, together with BMP, and maintained for 72 hrs until the end of the experiment at day 8. Media was changed daily. Control experiments were carried under identical conditions, adding water instead of ROCK inhibitor.

3D hPSC = assay: BMP4 exposure of micropatterned 3D hPSC without neural induction (immunostaining, qPCR); type: cell-based, human
Description: FIG. 9 provides a schematic representing in vitro morphogenesis in three differentiation protocols in accordance with embodiments. (i) Exposure to BMP, without neural induction, results in an amnion-like tissue containing cells from three germ layers without formation of a neural fold. (ii) Neural tube morphogenesis is observed when neural induction is followed by exposure to BMP4. (iii) Homogenous expression of forebrain markers is observed under exposure to neural induction without BMP.
FIG. 10 provides a schematic and results of the experimental timeline for three protocols detailed in FIG. 9. (B) Experimental timeline for the three protocols. Neural induction media includes N2 supplement and TGFβ inhibitor SB-431542 (SB). (C) Vertical sections of immunostained samples from the three differentiation protocols.
FIG. 19 provides a schematic, images, and bar graph of cellular differentiation in the absences of neural induction in which no neural folding is observed, in accordance with embodiments. (A) Experimental timeline for BMP4 exposure without neural induction. (B) Bright field images showing development over 3 days. At day 4, cells migrate away from the micropatterned area. (C) Horizonal and (D) vertical sections of samples at day 3. Micropattern diameter is indicated in microns. Cells close to the glass express mesendoderm markers Brachyury (BRA) and SOX17. In 450 μm patterns, SOX2 is observed at the center of the tissue. Cells at the colony edges and at the top express amniotic ectoderm marker CDX2. A single lumen is maintained and no spontaneous folding is observed. (E) qPCR analysis for differentiation markers as a function of BMP concentration. BMP results in upregulation of the WNT and NODAL pathways, upregulation of mesendoderm markers EOMES/Brachyury/SOX17, amniotic ectoderm marker GATA3, downregulation of ectoderm marker SOX2 and pluripotency marker NANOG. Scale bar 50 μm unless indicated otherwise.
The system was next applied to study which tissues contribute to neural folding. This question has been studied for over a century in animal models, and multiple hypothesis have been developed regarding the mechanical role of the neural tissue, neighboring surface ectoderm and underlying mesoderm. However, the limited accessibility in utero led to inconclusive and often contradictive results. The in vitro system allows to systemically control tissue composition through the choice of small molecules in the culture media (FIGS. 9 & 10). This system allows discernment of the tissues which are necessary and sufficient for neural tube morphogens. […] Mesoderm fates are suppressed by TGFβ inhibition, and only appear if the period of TGFβ inhibition is decreased (FIG. 17). […] It was next examined whether the non-neural ectoderm is required for folding. […]

[2] = ROCK inhibition, Y-27632 10 μM day 5-8, vs control
[3] = as a function of BMP concentration, no neural induction

Compound | Shroom3 and F-actin localization to the apical neural surface [1, 2] | actin localization to the basal surface of epidermal/neural tissues and the epidermal apical surface [1, 2] | neural folding morphology ([1]; Y-27632 10 μM applied at day 5 together with BMP, maintained 72 hrs until day 8, vs control (water)) | neural apical curvature [1] | neural tissue morphology (thickness, hinges) [1] | cell fates and folding morphogenesis (3D hPSC; addition of BMP4 without neural induction) | qPCR: WNT and NODAL pathways (3D hPSC; [3]) | qPCR: ectoderm marker SOX2 and pluripotency marker NANOG (3D hPSC; [3]) | qPCR: mesendoderm markers EOMES/Brachyury/SOX17, amniotic ectoderm marker GATA3 (3D hPSC; [3])
C[C@@H](N)[C@H]1CC[C@H](C(=O)Nc2ccncc2)CC1 [Y-27632] | disrupted | not significantly perturbed | severe folding defects similar to the open book morphology observed in embryonic cranial NTDs | significantly less curved than control samples | thick and flat neural tissue, which lacks neural hinges | – | – | – | –
CO[C@@H]1[C@@H](OC(N)=O)[C@@H](O)[C@H](Oc2ccc3c(O)c(NC(=O)c4ccc(O)c(CC=C(C)C)c4)c(=O)oc3c2C)OC1(C)C [novobiocin] | – | – | – | significantly less curved than control samples | thick and flat neural tissue, which lacks neural hinges | – | – | – | –
CCCC(CCC)C(=O)O [valproic acid] | – | – | – | significantly less curved than control samples | thick and flat neural tissue, which lacks neural hinges | – | – | – | –
BMP4: bone morphogenetic protein 4, morphogen | – | – | – | – | – | mesoderm and ectoderm cell fates, but lack neural tissue and does not exhibit folding | upregulation | downregulation | upregulation
